What was measured:
α-glucosidase [1] = conditions: in words; valiolamine and N-substituted valiolamine derivatives (European Patent Publication No. 56194 and 89812); cited from earlier work
α-glucosidase [2] = experiment: α-glucosidase-inhibiting activity (stated in words); assay type: biochemical; conditions: VA-G and VM-G
Solubility in solvents = assay type: physicochemical; conditions: for solubility in water: in words, for isolation and purification
Rhizoctonia solanii = experiment: minimum concentration causing the abnormal branching at the tops of hypha of Rhizoctonia solanii; assay type: cell-based; conditions: method: J. Antibiotics 24,114-118 (1971)
Method: For example, the minimum concentration causing the abnormal branching at the tops of hypha of Rhizoctonia solanii [See J. Antibiotics 24,114-118 (1971)}was 0.5 μg/mL for VM-G and 2.5 μg/mL for VA-G.

[3] = target: T1, sucrase from porcine small intestine (Sus scrofa, UniProt P56729); experiment: inhibition of sucrase from porcine small intestine (substrate 50 mM sucrose); assay type: biochemical; conditions: read-out: IC50 (molarity required for 50% inhibition of the enzymatic activity) against sucrase
T1 construct: sucrase from porcine small intestine; from tissue; host or cells: porcine small intestine

[4] = tested on: sheath blight of the rice plant; experiment: activity against the sheath blight of the rice plant (stated in words); conditions: VA-G and VM-G
[5] = in ethanol, ethyl acetate, chloroform, and acetone
[6] = in water, dimethylsulfoxide, and methanol

T1 sequence (P56729 with tags, fused parts or gaps limits assumed): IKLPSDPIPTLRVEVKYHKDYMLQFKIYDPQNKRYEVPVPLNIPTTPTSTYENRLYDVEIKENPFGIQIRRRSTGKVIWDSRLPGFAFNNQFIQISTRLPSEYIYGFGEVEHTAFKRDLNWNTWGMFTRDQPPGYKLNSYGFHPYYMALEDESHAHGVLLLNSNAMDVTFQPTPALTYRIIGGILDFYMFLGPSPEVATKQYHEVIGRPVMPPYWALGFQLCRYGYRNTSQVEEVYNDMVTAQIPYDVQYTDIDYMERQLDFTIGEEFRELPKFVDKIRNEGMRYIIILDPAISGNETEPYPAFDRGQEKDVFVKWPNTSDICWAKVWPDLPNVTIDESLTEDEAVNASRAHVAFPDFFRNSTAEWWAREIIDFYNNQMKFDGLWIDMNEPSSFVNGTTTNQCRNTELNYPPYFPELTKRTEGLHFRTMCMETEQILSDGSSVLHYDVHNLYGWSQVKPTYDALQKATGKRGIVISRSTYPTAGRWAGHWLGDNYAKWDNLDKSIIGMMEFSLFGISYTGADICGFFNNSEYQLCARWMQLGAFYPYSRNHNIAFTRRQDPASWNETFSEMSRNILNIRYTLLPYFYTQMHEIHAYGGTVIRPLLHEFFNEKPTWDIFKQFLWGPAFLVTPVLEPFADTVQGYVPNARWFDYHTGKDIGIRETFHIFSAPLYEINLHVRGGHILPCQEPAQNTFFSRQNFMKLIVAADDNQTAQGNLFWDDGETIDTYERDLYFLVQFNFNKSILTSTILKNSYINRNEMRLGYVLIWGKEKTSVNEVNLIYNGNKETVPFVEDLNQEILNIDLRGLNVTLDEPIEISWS
T1 sequence (P56729 with tags, fused parts or gaps partner limits assumed): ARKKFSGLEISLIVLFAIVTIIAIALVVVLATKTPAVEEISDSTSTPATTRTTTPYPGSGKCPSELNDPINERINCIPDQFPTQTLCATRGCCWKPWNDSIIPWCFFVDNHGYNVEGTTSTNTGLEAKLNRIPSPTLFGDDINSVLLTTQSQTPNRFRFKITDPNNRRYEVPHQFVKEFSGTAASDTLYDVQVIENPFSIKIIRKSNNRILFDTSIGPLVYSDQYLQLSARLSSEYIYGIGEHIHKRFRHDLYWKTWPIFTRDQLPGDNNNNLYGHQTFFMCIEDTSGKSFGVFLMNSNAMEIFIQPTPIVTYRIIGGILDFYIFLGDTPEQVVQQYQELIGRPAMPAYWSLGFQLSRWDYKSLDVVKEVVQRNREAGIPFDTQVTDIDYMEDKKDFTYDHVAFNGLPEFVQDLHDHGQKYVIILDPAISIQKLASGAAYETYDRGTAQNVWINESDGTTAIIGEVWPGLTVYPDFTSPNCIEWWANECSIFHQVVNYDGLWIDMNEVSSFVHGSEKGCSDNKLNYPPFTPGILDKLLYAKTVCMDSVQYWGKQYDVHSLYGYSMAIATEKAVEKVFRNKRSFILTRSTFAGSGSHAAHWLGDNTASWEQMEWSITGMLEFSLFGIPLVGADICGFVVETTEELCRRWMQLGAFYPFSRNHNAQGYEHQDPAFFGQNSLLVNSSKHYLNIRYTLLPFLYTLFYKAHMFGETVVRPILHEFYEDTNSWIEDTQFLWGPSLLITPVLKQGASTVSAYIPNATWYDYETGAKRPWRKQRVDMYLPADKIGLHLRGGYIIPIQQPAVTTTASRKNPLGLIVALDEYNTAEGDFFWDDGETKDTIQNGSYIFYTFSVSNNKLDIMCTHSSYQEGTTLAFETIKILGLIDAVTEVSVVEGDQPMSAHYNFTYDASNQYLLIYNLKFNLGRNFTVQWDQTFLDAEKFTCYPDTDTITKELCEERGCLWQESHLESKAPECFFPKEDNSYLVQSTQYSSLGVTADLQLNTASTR

Row | Molecule | α-glucosidase-inhibitory action (α-glucosidase [1]) | also measured
1 | OC[C@@]1(O)C[C@H](NCCc2ccccc2)[C@H](O)[C@@H](O)[C@@H]1O [(1), N-phenethylvaliolamine] | potent α-glucosidase-inhibitory action | 
2 | OC[C@@]1(O)C[C@H](NCC=Cc2ccccc2)[C@H](O)[C@@H](O)[C@@H]1O [(2), N-(3-phenylallyl)valiolamine] | potent α-glucosidase-inhibitory action | 
3 | OC[C@@]1(O)C[C@H](NCc2ccco2)[C@H](O)[C@@H](O)[C@@H]1O [(3), N-furfurylvaliolamine] | potent α-glucosidase-inhibitory action | 
4 | OC[C@@]1(O)C[C@H](NCc2cccs2)[C@H](O)[C@@H](O)[C@@H]1O [(4), N-thenylvaliolamine] | potent α-glucosidase-inhibitory action | 
5 | OC[C@@]1(O)C[C@H](NCc2cccnc2)[C@H](O)[C@@H](O)[C@@H]1O [(5), N-(3-pyridylmethyl)valiolamine] | potent α-glucosidase-inhibitory action | 
6 | OC[C@@]1(O)C[C@H](NCc2ccc(Br)cc2)[C@H](O)[C@@H](O)[C@@H]1O [(6), N-(4-bromobenzyl)valiolamine] | potent α-glucosidase-inhibitory action | 
7 | OC[C@@]1(O)C[C@H](NC[C@H](O)c2ccccc2)[C@H](O)[C@@H](O)[C@@H]1O [(7), N-[(R)-β-hydroxyphenethyl]valiolamine] | potent α-glucosidase-inhibitory action | 
8 | OC[C@@]1(O)C[C@H](NC[C@@H](O)c2ccccc2)[C@H](O)[C@@H](O)[C@@H]1O [(8), N-[(S)-β-hydroxyphenethyl]valiolamine] | potent α-glucosidase-inhibitory action | 
9 | COc1ccccc1C(O)CN[C@H]1C[C@](O)(CO)[C@@H](O)[C@H](O)[C@H]1O (stereo partly drawn) [(9), N-(β-hydroxy-2-methoxyphenethyl)valiolamine] | potent α-glucosidase-inhibitory action | 
10 | CC(C)(C)c1cc(CN[C@H]2C[C@](O)(CO)[C@@H](O)[C@H](O)[C@H]2O)cc(C(C)(C)C)c1O [(10), N-(3,5-di-tert-butyl-4-hydroxybenzyl)valiolamine] | potent α-glucosidase-inhibitory action | 
11 | OC[C@@]1(O)C[C@H](NCC2CCCCC2)[C@H](O)[C@@H](O)[C@@H]1O [(11), N-(cyclohexylmethyl)valiolamine] | potent α-glucosidase-inhibitory action | 
12 | CC(C)=CCC/C(C)=C/CN[C@H]1C[C@](O)(CO)[C@@H](O)[C@H](O)[C@H]1O [(12), N-geranylvaliolamine] | potent α-glucosidase-inhibitory action | 
13 | OCC(CO)N[C@H]1C[C@](O)(CO)[C@@H](O)[C@H](O)[C@H]1O [(13), N-(1,3-dihydroxy-2-propyl)valiolamine] | potent α-glucosidase-inhibitory action | 
14 | OCC(N[C@H]1C[C@](O)(CO)[C@@H](O)[C@H](O)[C@H]1O)C(O)c1ccccc1 (stereo partly shown) [(14), N-(1,3-dihydroxy-1-phenyl-2-propyl)valiolamine] | potent α-glucosidase-inhibitory action | 
15 | OC[C@H](N[C@H]1C[C@](O)(CO)[C@@H](O)[C@H](O)[C@H]1O)c1ccccc1 [(15), N-[(R)-o-(hydroxymethyl)benzyl]valiolamine] | potent α-glucosidase-inhibitory action | 
16 | OC[C@@]1(O)C[C@H](NC2CCCCC2)[C@H](O)[C@@H](O)[C@@H]1O [(16), N-cyclohexylvaliolamine] | potent α-glucosidase-inhibitory action | 

Row | Molecule | α-glucosidase-inhibitory action (α-glucosidase [1]) | also measured
17 | OC[C@@]1(O)C[C@H](NC2CCCCC2O)[C@H](O)[C@@H](O)[C@@H]1O (stereo partly shown) [(17), N-(2-hydroxycyclohexyl)valiolamine] | potent α-glucosidase-inhibitory action | 
18 | OC[C@@]1(O)C[C@H](N[C@@H]2CCCC[C@H]2O)[C@H](O)[C@@H](O)[C@@H]1O [(18), N-[(1R,2R)-2-hydroxycyclohexyl]valiolamine] | potent α-glucosidase-inhibitory action | 
19 | OC[C@@]1(O)C[C@H](NC2CCCC2O)[C@H](O)[C@@H](O)[C@@H]1O (stereo partly shown) [(19), N-(2-hydroxycyclopentyl)valiolamine] | potent α-glucosidase-inhibitory action | 
20 | CO[C@H]1O[C@H](C)[C@@H](N[C@H]2C[C@](O)(CO)[C@@H](O)[C@H](O)[C@H]2O)[C@H](O)[C@H]1O [(20), Methyl 4-[(1S,2S)-(2,4,5(OH)/3,5)-2,3,4,5-tetrahydroxy-5-(hydroxymethyl)cyclohexyl]amino-4,6-dideoxy-α-D-glucopyranoside] | potent α-glucosidase-inhibitory action | 
21 | N[C@H]1C[C@H](CO)[C@@H](N[C@H]2C[C@](O)(CO)[C@@H](O)[C@H](O)[C@H]2O)[C@H](O)[C@H]1O [(22), [(1S,2S)-(2,4,5(OH)/3,5)-2,3,4,5-tetrahydroxy-5-(hydroxymethyl)cyclohexyl][(1R,2S)-(2,6/3,4)-4-amino-2,3-dihydroxy-6-(hydroxymethyl)cyclohexyl]-amine] | potent α-glucosidase-inhibitory action | 
22 | OC[C@H]1C[C@@H](N[C@H]2C[C@](O)(CO)[C@@H](O)[C@H](O)[C@H]2O)[C@H](O)[C@@H](O)[C@@H]1O [(23), N-[(1R,2S)-(2,4/3,5)-2,3,4-trihydroxy-5-(hydroxymethyl)cyclohexyl]valiolamine] | potent α-glucosidase-inhibitory action | 
23 | C[C@H]1C[C@H](N)[C@H](O)[C@@H](O)[C@@H]1N[C@H]1C[C@](O)(CO)[C@@H](O)[C@H](O)[C@H]1O [(24), N-[(1R,2S)-(2,6/3,4)-4-amino-2,3-dihydroxy-6-methylcyclohexyl]valiolamine] | potent α-glucosidase-inhibitory action | 
24 | C[C@H]1C[C@H](O)[C@H](O)[C@@H](O)[C@@H]1N[C@H]1C[C@](O)(CO)[C@@H](O)[C@H](O)[C@H]1O [(25), N-[(1R,2S)-(2,6/3,4)-2,3,4-trihydroxy-6-methylcyclohexyl]valiolamine] | potent α-glucosidase-inhibitory action | 
25 | C[C@H]1C[C@@H](O)[C@H](O)[C@@H](O)[C@@H]1N[C@H]1C[C@](O)(CO)[C@@H](O)[C@H](O)[C@H]1O [(26), N-[(1R,2S)-(2,4,6/3)-2,3,4-trihydroxy-6-methylcyclohexyl]valiolamine] | potent α-glucosidase-inhibitory action | 
26 | C[C@H]1O[C@H](O[C@H]2[C@H](O)[C@@H](O)C(O)O[C@@H]2CO)[C@H](O)[C@@H](O)[C@@H]1N[C@H]1C[C@](O)(CO)[C@@H](O)[C@H](O)[C@H]1O (stereo partly drawn) [(27), 4-O-α-[4-[[(1S)-(1,2,4,5(OH)/3,5)-2,3,4,5-tetrahydroxy-5-(hydroxymethyl)cyclohexyl]amino]-4,6-dideoxy-D-glucopyranosyl]-D-glucopyranose] | potent α-glucosidase-inhibitory action | 
27 | C[C@H]1O[C@H](O[C@H]2[C@H](O)[C@@H](O)[C@@H]3OC[C@H]2O3)[C@H](O)[C@@H](O)[C@@H]1N[C@H]1C[C@](O)(CO)[C@@H](O)[C@H](O)[C@H]1O [(28)] | potent α-glucosidase-inhibitory action | 
28 | OCC1=C[C@H](N[C@H]2C[C@](O)(CO)[C@@H](O)[C@H](O)[C@H]2O)[C@H](O)[C@@H](O)[C@@H]1O [VA-G, validoxylamine G] |  | α-glucosidase-inhibiting activity (α-glucosidase [2]): α-glucosidase-inhibiting activity; Solubility in solvents (Solubility in solvents; [5]): Slightly soluble or insoluble; Solubility in solvents (Solubility in solvents; [6]): Soluble; solubility in water (Solubility in solvents): water-soluble basic substances; minimal effective concentration (Rhizoctonia solanii): 2.5 µg/mL; IC50 [3]: 8.8 µM; activity against the sheath blight of the rice plant [4]: an activity against the sheath blight of the rice plant
29 | OCC1=C[C@H](N[C@H]2C[C@](O)(CO)[C@@H](O[C@@H]3O[C@H](CO)[C@@H](O)[C@H](O)[C@H]3O)[C@H](O)[C@H]2O)[C@H](O)[C@@H](O)[C@@H]1O [VM-G, validamycin G] |  | α-glucosidase-inhibiting activity (α-glucosidase [2]): α-glucosidase-inhibiting activity; Solubility in solvents (Solubility in solvents; [5]): Slightly soluble or insoluble; Solubility in solvents (Solubility in solvents; [6]): Soluble; solubility in water (Solubility in solvents): water-soluble basic substances; minimal effective concentration (Rhizoctonia solanii): 0.5 µg/mL; IC50 [3]: 110 µM; activity against the sheath blight of the rice plant [4]: an activity against the sheath blight of the rice plant
30 | N[C@H]1C[C@](O)(CO)[C@@H](O)[C@H](O)[C@H]1O [Valiolamine, valiolamine] | potent α-glucosidase-inhibitor | 
31 | Methyl 4-[(1S,2S)-(2,4,5(OH)/3,5)-2,3,4,5-deoxy-α-D-glucopyranoside [(21)] | potent α-glucosidase-inhibitory action | 
